Results on 19 compounds are retold here after patent US20120225062A1 (priority 2011, published 2012).

The target of assay [1] is Pim 3 (Homo sapiens, UniProt Q86V86). Nature of the assay: Pim 3 AlphaScreen assay (high ATP).
The subject of assay [2] is KMS11 (human myeloma cell line). Description: Cell Proliferation Assay (CellTiter-Glo, 3 days). The note with it: KMS-11, 72 h, KMS11-luc cells. The class given is cell-based. An outline of the steps:
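EC50 from CellTiter-Glo luminescence after 3-day, 37° C compound treatment of KMS11 cells seeded at 2000 per well in IMDM plus 10% FBS.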
In general terms: In ATP-based viability assays light output follows the ATP content of the culture.

The target in assay [3] is Pim 2 (Homo sapiens, UniProt Q9P1W9). Nature of the assay: Pim 2 AlphaScreen assay (high ATP).
Protocol: The activity of Pim 1, Pim 2, & Pim 3 is measured using a homogeneous bead based system quantifying the amount of phosphorylated peptide substrate resulting from kinase-catalyzed phosphoryl transfer to a peptide substrate. Compounds to be tested are dissolved in 100% DMSO and directly distributed to a white 384-well plate at 0.25 μl per well. […] This is followed by the addition of 5 μl/well of Pim 1, Pim 2 or Pim 3 kinase in assay buffer (concentrations described below). Final assay concentrations (described below) are in 2.5% DMSO. The reactions are performed for ˜2 hours, then stopped by the addition of 10 μl of 0.75 μg/ml anti-phospho Ser/Thr antibody (Cell Signaling), 10 μg/ml Protein A AlphaScreen beads (Perkin Elmer), and 10 μg/ml streptavidin coated AlphaScreen beads in stop/detection buffer (50 mM EDTA, 95 mM Tris, pH=7.5, 0.01% Tween-20). The stopped reactions are incubated overnight in the dark. The phosphorylated peptide is detected via an oxygen anion initiated chemiluminescence/fluorescence cascade using the Envision plate reader (Perkin Elmer).
Assay [4] deals with Pim 1 (Homo sapiens, UniProt P11309). Description: Pim 1 AlphaScreen assay (high ATP).
Pim 1, sequence (P11309 whole entry): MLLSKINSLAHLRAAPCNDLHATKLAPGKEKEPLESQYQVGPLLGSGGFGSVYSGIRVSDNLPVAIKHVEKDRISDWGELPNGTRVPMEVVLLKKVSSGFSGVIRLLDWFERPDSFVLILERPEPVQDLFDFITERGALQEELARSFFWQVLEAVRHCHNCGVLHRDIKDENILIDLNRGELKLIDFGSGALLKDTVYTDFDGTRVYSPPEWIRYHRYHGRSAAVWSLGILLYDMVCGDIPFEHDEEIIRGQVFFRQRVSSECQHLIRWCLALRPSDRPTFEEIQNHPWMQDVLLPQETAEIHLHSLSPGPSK

Pim 2, sequence (Q9P1W9 whole entry): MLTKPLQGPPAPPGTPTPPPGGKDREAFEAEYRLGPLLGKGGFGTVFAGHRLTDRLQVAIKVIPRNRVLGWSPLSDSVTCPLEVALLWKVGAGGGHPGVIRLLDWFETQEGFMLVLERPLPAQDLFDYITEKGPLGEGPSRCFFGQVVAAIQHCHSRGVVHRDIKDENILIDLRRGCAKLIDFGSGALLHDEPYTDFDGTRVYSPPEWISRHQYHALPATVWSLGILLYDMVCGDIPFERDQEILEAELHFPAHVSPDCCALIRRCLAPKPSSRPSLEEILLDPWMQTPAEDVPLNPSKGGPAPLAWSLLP

Regarding `C[C@H]1CN(c2ccncc2NC(=O)c2ccc(F)c(-c3c(F)cc(O[C@@H]4CCCOC4)cc3F)n2)C[C@@H](N)[C@@H]1O` [Example 105, N-(4-((3R,4R,5S)-3-amino-4-hydroxy-5-methylpiperidin-1-yl)pyridin-3-yl)-6-(2,6-difluoro-4-((R)-tetrahydro-2H-pyran-3-yloxy)phenyl)-5-fluoropicolinamide], the IC50 was 0.17 nM in assay [1], 0.64 nM in assay [3] and 0.01 nM in assay [4]. In assay [2], this compound came in with an EC50 of 96 nM.

As for `C[C@H]1CN(c2ccncc2NC(=O)c2ccc(F)c(-c3c(F)cc(O[C@H]4CCCOC4)cc3F)n2)C[C@@H](N)[C@@H]1O` [Example 106, N-(4-((3R,4R,5S)-3-amino-4-hydroxy-5-methylpiperidin-1-yl)pyridin-3-yl)-6-(2,6-difluoro-4-((S)-tetrahydro-2H-pyran-3-yloxy)phenyl)-5-fluoropicolinamide], the IC50 in assay [1] turned out to be 0.13 nM; in assay [3] it was 0.52 nM; in assay [4], 0.01 nM. Further, the EC50 in assay [2] was found to be 154 nM.

As for `C[C@H]1CN(c2ccncc2NC(=O)c2nc(-c3c(F)cc(C4COC4)cc3F)c(F)cc2N)C[C@@H](N)[C@@H]1O` [Example 107, 3-amino-N-(4-((3R,4R,5S)-3-amino-4-hydroxy-5-methylpiperidin-1-yl)pyridin-3-yl)-6-(2,6-difluoro-4-(oxetan-3-yl)phenyl)-5-fluoropicolinamide], the IC50 in assay [1] is 0.31 nM; in assay [3], 1.03 nM; in assay [4], 0.02 nM. Also, the EC50 in assay [2] is 157 nM.

With `COCCc1cc(F)c(-c2nc(C(=O)Nc3cnccc3[C@H]3C[C@@H](N)[C@H](O)[C@@H](C)C3)ccc2F)c(F)c1` [Example 108, N-(4-((1R,3R,4R,5S)-3-amino-4-hydroxy-5-methylcyclohexyl)pyridin-3-yl)-6-(2,6-difluoro-4-(2-methoxyethyl)phenyl)-5-fluoropicolinamide], the IC50 turned out to be 1.19 nM in assay [1], 2.93 nM in assay [3] and 0.04 nM in assay [4]. The compound also displayed an EC50 in assay [2] of 906 nM.

For `COCCc1cc(F)c(-c2nc(C(=O)Nc3cnccc3N3C[C@@H](N)[C@H](O)[C@@H](C)C3)ccc2F)c(F)c1` [Example 109, N-(4-((3R,4R,5S)-3-amino-4-hydroxy-5-methylpiperidin-1-yl)pyridin-3-yl)-6-(2,6-difluoro-4-(2-methoxyethyl)phenyl)-5-fluoropicolinamide], the IC50 in assay [1] was determined as 0.14 nM; in assay [3], 0.38 nM; in assay [4], 0.01 nM. The response in assay [2] was half-maximal at 28 nM (EC50).

For `CC(C)[C@@H]1C[C@H](N)C[C@H](c2ccncc2NC(=O)c2ccc(F)c(-c3c(F)cc(C(C)(C)O)cc3F)n2)C1` [Example 119, N-(4-((1R,3S,5S)-3-amino-5-isopropylcyclohexyl)pyridin-3-yl)-6-(2,6-difluoro-4-(2-hydroxypropan-2-yl)phenyl)-5-fluoropicolinamide], the IC50 in assay [1] amounted to 0.42 nM; in assay [3] it was 1.36 nM; in assay [4] it was 0.01 nM. Further, in assay [2], it took 17 nM to reach a half-maximal effect (EC50).

Consider `COCCOc1cc(F)c(-c2nc(C(=O)Nc3cnccc3[C@H]3C[C@@H](N)[C@H](O)[C@@H](C)C3)c(N)cc2F)c(F)c1` [Example 120, 3-amino-N-(4-((1R,3R,4R,5S)-3-amino-4-hydroxy-5-methylcyclohexyl)pyridin-3-yl)-6-(2,6-difluoro-4-(2-methoxyethoxy)phenyl)-5-fluoropicolinamide], for which the IC50 in assay [1] turned out to be 0.51 nM; in assay [3], 3.78 nM; in assay [4], 0.03 nM. The EC50 in assay [2] was determined as 32 nM.

Turning to `Cc1cc(F)c(-c2nc(C(=O)Nc3cnccc3[C@H]3C[C@@H](N)C[C@@H](C(C)C)C3)ccc2F)c(F)c1` [Example 123, N-(4-((1R,3S,5S)-3-amino-5-isopropylcyclohexyl)pyridin-3-yl)-6-(2,6-difluoro-4-methylphenyl)-5-fluoropicolinamide], the IC50 was 0.58 nM in assay [1], 0.8 nM in assay [3] and 0.02 nM in assay [4]. This compound registered an EC50 in assay [2] of 59 nM.

In the case of `COCCOc1cc(F)c(-c2nc(C(=O)Nc3cnccc3[C@H]3C[C@@H](N)[C@@H](O)[C@@H](C)C3)ccc2F)c(F)c1` [Example 124, N-(4-((1R,3R,4S,5S)-3-amino-4-hydroxy-5-methylcyclohexyl)pyridin-3-yl)-6-(2,6-difluoro-4-(2-methoxyethoxy)phenyl)-5-fluoropicolinamide], the half-inhibitory concentration (IC50) in assay [1] is 1.72 nM; in assay [3], 7.18 nM; in assay [4], 0.06 nM. The same compound came in with an EC50 in assay [2] of 119 nM.

As to `CC(C)Oc1cc(F)c(-c2nc(C(=O)Nc3cnccc3[C@H]3C[C@@H](N)[C@@H](O)[C@@H](C)C3)ccc2F)c(F)c1` [Example 125, N-(4-((1R,3R,4S,5S)-3-amino-4-hydroxy-5-methylcyclohexyl)pyridin-3-yl)-6-(2,6-difluoro-4-isopropoxyphenyl)-5-fluoropicolinamide], the IC50 turned out to be 0.96 nM in assay [1], 1.82 nM in assay [3] and 0.03 nM in assay [4]. Moreover, a half-maximal response in assay [2] (EC50) required 100 nM.

`C[C@@H]1C[C@H](N)C[C@H](c2ccncc2NC(=O)c2ccc(F)c(-c3c(F)cc(C4(F)CCOCC4)cc3F)n2)C1` [Example 126, N-(4-((1R,3S,5S)-3-amino-5-methylcyclohexyl)pyridin-3-yl)-6-(216-difluoro-4-(4-fluorotetrahydro-2H-pyran-4-yl)phenyl)-5-fluoropicolinamide]: the IC50 was 1.15 nM in assay [1], 1.33 nM in assay [3] and 0.02 nM in assay [4]. In assay [2], this compound registered an EC50 of 64 nM.

Turning to `COC(C)(C)c1cc(F)c(-c2nc(C(=O)Nc3cnccc3N3C[C@@H](N)[C@H](O)[C@@H](C)C3)ccc2F)c(F)c1` [Example 130, N-(4-((3R,4R,5S)-3-amino-4-hydroxy-5-methylpiperidin-1-yl)pyridin-3-yl)-6-(2,6-difluoro-4-(2-methoxypropan-2-yl)phenyl)-5-fluoropicolinamide], the IC50 is 0.42 nM in assay [1], 1.36 nM in assay [3] and 0.02 nM in assay [4]. The compound also gave an EC50 in assay [2] of 24 nM.

On to `C[C@H]1CN(c2ccncc2NC(=O)c2ccc(F)c(-c3c(F)cc(CC(C)(C)O)cc3F)n2)C[C@@H](N)[C@@H]1O` [Example 131, N-(4-((3R,4R,5S)-3-amino-4-hydroxy-5-methylpiperidin-1-yl)pyridin-3-yl)-6-(2,6-difluoro-4-(2-hydroxy-2-methylpropyl)phenyl)-5-fluoropicolinamide], for which the values for the IC50 in assay [1], in assay [3] and in assay [4] were 0.18 nM, 1.31 nM and 0.01 nM, respectively. Moreover, the EC50 in assay [2] stood at 25 nM.

On to `C[C@@H]1C[C@H](N)C[C@H](c2ccncc2NC(=O)c2ccc(F)c(-c3c(F)cc(OCCN4CCCC4=O)cc3F)n2)C1` [Example 132, N-(4-((1R,3S,5S)-3-amino-5-methylcyclohexyl)pyridin-3-yl)-6-(2,6-difluoro-4-(2-(2-oxopyrrolidin-1-yl)ethoxy)phenyl)-5-fluoropicolinamide], for which the results for the IC50 in assay [1], in assay [3] and in assay [4] were 1.1 nM, 4.78 nM and 0.02 nM, respectively. Moreover, in assay [2], the EC50 is 206 nM.

On to `CC(C)[C@@H]1C[C@H](N)C[C@H](c2ccncc2NC(=O)c2ccc(F)c(-c3c(F)cc(C4(O)CCC4)cc3F)n2)C1` [Example 133, N-(4-((1R,3S,5S)-3-amino-5-isopropylcyclohexyl)pyridin-3-yl)-6-(2,6-difluoro-4-(1-hydroxycyclobulyl)phenyl)-5-fluoropicolinamide], for which the IC50 in assay [1] amounted to 0.7 nM; in assay [3] it was 1.77 nM; in assay [4] it was 0.02 nM. Further, a half-maximal response in assay [2] (EC50) required 31 nM.

As to `CCOCc1cc(F)c(-c2nc(C(=O)Nc3cnccc3[C@H]3C[C@@H](N)[C@@H](O)[C@@H](C)C3)ccc2F)c(F)c1` [Example 134, N-(4-((1R,3R,4S,5S)-3-amino-4-hydroxy-5-methylcyclohexyl)pyridin-3-yl)-6-(4-(ethoxymethyl)-2,6-difluorophenyl)-5-fluoropicolinamide], the IC50 in assay [1] was 4.89 nM; in assay [3], 9.57 nM; in assay [4], 0.13 nM. The compound further returned an EC50 in assay [2] of 228 nM.

In the case of `C[C@@H]1C[C@H](N)C[C@H](c2ccncc2NC(=O)c2ccc(F)c(-c3c(F)cc(C4(F)COC4)cc3F)n2)C1` [Example 135, N-(4-((1R,3S,5S)-3-amino-5-methylcyclohexyl)pyridin-3-yl)-6-(2,6-difluoro-4-(3-fluorooxetan-3-yl)phenyl)-5-fluoropicolinamide], the IC50 in assay [1] was 4.45 nM; in assay [3], 4.54 nM; in assay [4], 0.05 nM. For the same compound, it took 583 nM to reach a half-maximal effect in assay [2] (EC50).

`C[C@H]1C[C@@H](c2ccncc2NC(=O)c2ccc(F)c(-c3c(F)cc(C4(F)COC4)cc3F)n2)C[C@@H](N)[C@@H]1O` [Example 136, N-(4-((1R,3R,4R,5S)-3-amino-4-hydroxy-5-methylcyclohexyl)pyridin-3-yl)-6-(2,6-difluoro-4-(3-fluorooxetan-3-yl)phenyl)-5-fluoropicolinamide]: the figures for the IC50 in assay [1], in assay [3] and in assay [4] were 4.8 nM, 5.59 nM and 0.08 nM, respectively. Moreover, the EC50 in assay [2] was 225 nM.

`C[C@H]1C[C@@H](c2ccncc2NC(=O)c2ccc(F)c(-c3c(F)cc(C4(F)COC4)cc3F)n2)C[C@@H](N)[C@H]1O` [Example 137, N-(4-((1R,3R,4S,5S)-3-amino-4-hydroxy-5-methylcyclohexyl)pyridin-3-yl)-6-(2,6-difluoro-4-(3-fluorooxetan-3-yl)phenyl)-5-fluoropicolinamide]: the IC50 stood at 6.9 nM in assay [1], 10.3 nM in assay [3] and 0.08 nM in assay [4]. Moreover, in assay [2], the EC50 amounted to 549 nM.

One may read the IC50 as the concentration at which inhibition is half-maximal. A lower IC50 goes with higher potency. Broadly, the EC50 is the midpoint of the concentration-response curve. A low value points to greater potency.
